Data taken from patent US20120295917A1, “IMATINIB DICHL[…] ANTI-CANCER AGENT COMPRISING THE SAME” (CELLTRION PHARM, INC., priority 2009, published 2012).

What was measured:
[1] = Hygroscopicity test (Karl-Fischer titrator); format: physicochemical; conditions: 40° C., relative humidity 75%
[2] = tested on: colorectal adenocarcinoma cells (HT29); test: Cytotoxicity test (MTT); format: cell-based; conditions: for absorbance value based on 100% of the absorbance value for the control: HT29, 72 hours, MTT, 570 nm, mean of n=3
Procedure: Using a medium containing 10% of fetal bovine serum (FBS), Rosewell Park Memorial Institute medium (RPMI) and 1% of penicillin/streptomycin, a 2×10^5 cells/ml suspension of colorectal adenocarcinoma cells (HT29) was prepared. The prepared suspension was seeded into each well of […] and cultured for 24 hours. Each sample was added to three wells and cultured (n=3).
The medium was removed from each well after 24 hours and the wells were washed with phosphate buffered saline (PBS). […] 100 µl of each prepared solution was seeded into the wells and cultured at 37° C. for 72 hours.
10 μl of 3-(4,5-dimethylthiazol-2-yl)-2,5-diphenyltetrazolium bromide (MTT) was added to each sample and cultured for 4 hours. The absorbance of the solution was measured at 570 nm using Enzyme-linked immunosorbent assay (ELISA).

[3] = accelerated condition for 28 days; in words
Procedure: Particularly, each imatinib acid addition salt was stored in a sealed state under an accelerated condition (a temperature of 40° C. and a relative humidity of 75%), and after 0 (zero), 3, 7, 14 and 28 days, the remaining rate of the active ingredient was analyzed with a high performance liquid chromatography (HPLC).

[4] = tested on: rats; conditions: cited from earlier work

Row | SMILES | amount of moisture contained in the compound ([1]; 2 hours) [weight %] | amount of moisture contained in the compound ([1]; 8 hours) [weight %] | amount of moisture contained in the compound ([1]; 24 hours) [weight %] | amount of moisture contained in the compound ([1]; 3 days) [weight %] | amount of moisture contained in the compound ([1]; Initial) [weight %] | anti-cancer effects compared with imatinib methanesulfonate (β crystalline form) ([2]; HT29 cytotoxicity, in words) | stability compared with imatinib methanesulfonate (β crystalline form) [3] | absorbance value based on 100% of the absorbance value for the control ([2]; 1 nM) [%] | absorbance value based on 100% of the absorbance value for the control ([2]; 10 nM) [%] | absorbance value based on 100% of the absorbance value for the control ([2]; 100 nM) [%] | LD50 (the lethal dose causing death in 50% of rats on oral administration) [4]
1 | CS(=O)(=O)O.Cc1ccc(NC(=O)c2ccc(CN3CCN(C)CC3)cc2)cc1Nc1nccc(-c2cccnc2)n1 [Imatinib Methanesulfonate, reference compound] | 0.89 | 0.86 | 0.84 | 1.11 | 0.83 | – | – | – | – | – | –
2 | Cc1ccc(NC(=O)c2ccc(CN3CCN(C)CC3)cc2)cc1Nc1nccc(-c2cccnc2)n1 [Imatinib dichloroacetate (crystalline form I)] | 1.14 | 1.18 | 1.14 | 1.26 | 1.14 | more potent anti-cancer effects | same or higher level of stability | – | – | – | –
3 | Cc1ccc(NC(=O)c2ccc(CN3CCN(C)CC3)cc2)cc1Nc1nccc(-c2cccnc2)n1 [Imatinib dichloroacetate (crystalline form II)] | 0.83 | 0.87 | 0.86 | 0.95 | 0.85 | – | same or higher level of stability | – | – | – | –
4 | O=C(O)C(Cl)Cl [dichloroacetic acid] | – | – | – | – | – | – | – | 101.2 | 98.6 | 95.2 | 2,820 mg/kg
